According to patent US6913925B1, “Human mesencephalon cell lines and methods of use therefor” (Signal Pharmaceuticals LLC, priority 1998, dated 2005):

B1: CNTF: ciliary neurotrophic factor (protein, UniProt P26441 1-200, looked up)
Ciliary neurotrophic factor: MAFTEHSPLTPHRRDLCSRSIWLARKIRSDLTALTESYVKHQGLNKNINLDSADGMPVASTDQWSELTEAERLQENLQAYRTFHVLLARLLEDQQVHFTPTEGDFHQAIHTLLLQVAAFAYQIEELMILLEYKIPRNEADGMPINVGDGGLFEKKLWGLKVLQELSQWTVRSIHDLRFISSHQTGIPARGSHYIANNKKM
B2: GDNF: glial cell-derived neurotrophic factor (protein, UniProt P39905 78-211, looked up)
Glial cell line-derived …: SPDKQMAVLPRRERNRQAAAANPENSRGKGRRGQRGKNRGCVLTAIHLNVTDLGLGYETKEELIFRYCSGSCDAAETTYDKILKNLSRNRRLVSDKVGQACCRPIAFDDDLSFLDDNLVYHILRKHSAKRCGCI

Test system: immortalized human mesencephalon cells
Experiment: Differentiation of conditionally-immortalized human mesencephalon cell lines into neurons
Assay type: cell-based
Settings: added together: forskolin 10 μM, GDNF 20 ng/mL, CNTF 20 ng/mL, IGF-I 100 ng/mL, BDNF 20 ng/mL
Source text: Conditionally-immortalized human mesencephalon neural precursor cell lines (which may, but need not, be clonal) may generally be induced to differentiate into neurons by inhibiting the expression of the growth-promoting gene (i.e., suppressing the production and/or activity of the growth-promoting protein). For example, if the gene encoding the growth-promoting protein is under the control of an externally-regulatable promoter, the conditions (e.g. temperature or composition of medium) may be modified to suppress transcription of the growth-promoting gene. For the tetracycline-controlled gene expression system discussed above, differentiation may be achieved by the addition of tetracycline to suppress transcription of the growth-promoting gene. In general, 1-5 μg/mL tetracycline for 48 hours is sufficient to begin neuronal morphological differentiation, and the number of differentiated neurons increases during subsequent days. Such differentiation may be performed, for example, by plating the cells on a suitable substrate (e.g., one or a combination of polyamino acid, fibronectin, laminin or tissue culture plastic) in a medium consisting of DMEM/F-12 with N2 supplement and tetracycline (1-5 μg/mL). […] Culture medium may then be refreshed (e.g., every 2-4 days).
An increase in TH expression was also observed for some cell lines, indicating the presence of dopaminergic neurons.
One clone (MESII(1)-C2) was differentiated in DMEM/F-12 with N2 supplement, tetracycline (1 μg/mL), forskolin (10 μM), GDNF (20 ng/mL) and BDNF (20 ng/mL). Following differentiation, a high number of MAP2ab and TH immunoreactive cells were observed. For such immunocytochemistry, cells were fixed with 4% paraformaldehyde, and were incubated with primary antibody in blocking buffer for 2 hours at room temperature, rinsed, and then incubated with a fluorescein (FITC)- or Texas red-conjugated species-specific secondary antibody (Jackson lmmunoresearch Laboratories, Inc., West Grove, Pa.) in blocking buffer for another hour at room temperature. Cultures were then rinsed three times with PBS and coverslipped with PVA/DABCO before scoring and photographing representative fields.

| Molecule | enhancement of differentiation by addition to DMEM/F-12 with N2 supplement and tetracycline |
| --- | --- |
| BDNF: brain-derived neurotrophic factor | differentiation is enhanced |
| IGF-I: insulin-like growth factor | differentiation is enhanced |
| B1 | differentiation is enhanced |
| B2 | differentiation is enhanced |
